The record followed here is patent US20090215778A1, “Alpha-substituted Arylmethyl Piperazine Pyrazolo [1,5-alpha]Pyrimidine Amide Derivatives” (priority 2007, published 2009).

Test [1] concerns the target T1, HIV Env six-helix bundle (6HB) structure (Human immunodeficiency virus type 1 group M subtype B, UniProt P04579).
T1 construct: H9 cells chronically infected with HIV-1 (H9/HIV-1RF); endogenous in cells; host or cells: H9 cells chronically infected with HIV-1 strain RF (Env is made from the virus in the infected cells, not by transfection)
The experiment in a line: Six-helix bundle (6HB) assay. The test is classed as cell-based, HIV-1 (strain RF). A digest of the protocol: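 Flow cytometry measured binding of a six-helix-bundle-specific polyclonal antibody, detected with PE-labelled secondary at 4 °C for 45 min, on H9/HIV-1 RF chronically infected cells. Compound was given 30 min at 37 °C before 1 μg/mL soluble CD4 induction for 1 h. Inhibition appears as reduced fluorescence.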

In test [2] the test system is HIV-1, NL4-3 strain. The experiment in a line: Virus infection assay (virus entry and single-cycle infection). Type of test: cell-based. The settings on record: Human immunodeficiency virus 1, NL43, TZM-b1, read-out: Nl4. A digest of the protocol: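 Single-cycle entry/infection read-out: β-galactosidase chemiluminescence measured one day after infection. Compounds were present during a 4 h, 37 °C exposure of TZM-b1 reporter cells to NL4-3 virus at MOI 0.01 plus DEAE-dextran (80 μg/mL final), followed by addition of complete medium.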

A value given as a limit tells only on which side of the number the result lay.

T1 sequence (P04579 32-519): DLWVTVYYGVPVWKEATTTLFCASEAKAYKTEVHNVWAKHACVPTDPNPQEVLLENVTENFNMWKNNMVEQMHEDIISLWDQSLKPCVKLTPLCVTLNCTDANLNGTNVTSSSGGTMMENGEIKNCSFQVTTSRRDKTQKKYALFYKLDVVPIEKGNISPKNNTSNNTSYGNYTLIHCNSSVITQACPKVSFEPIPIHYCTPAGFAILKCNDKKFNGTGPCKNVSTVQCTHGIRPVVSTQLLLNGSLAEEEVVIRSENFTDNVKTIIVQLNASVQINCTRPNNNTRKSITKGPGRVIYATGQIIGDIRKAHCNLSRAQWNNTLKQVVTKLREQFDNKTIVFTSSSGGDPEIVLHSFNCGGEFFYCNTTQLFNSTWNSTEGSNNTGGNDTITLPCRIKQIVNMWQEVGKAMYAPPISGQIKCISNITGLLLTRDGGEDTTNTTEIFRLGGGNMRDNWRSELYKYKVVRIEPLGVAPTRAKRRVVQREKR
T1 sequence (P04579 520-865): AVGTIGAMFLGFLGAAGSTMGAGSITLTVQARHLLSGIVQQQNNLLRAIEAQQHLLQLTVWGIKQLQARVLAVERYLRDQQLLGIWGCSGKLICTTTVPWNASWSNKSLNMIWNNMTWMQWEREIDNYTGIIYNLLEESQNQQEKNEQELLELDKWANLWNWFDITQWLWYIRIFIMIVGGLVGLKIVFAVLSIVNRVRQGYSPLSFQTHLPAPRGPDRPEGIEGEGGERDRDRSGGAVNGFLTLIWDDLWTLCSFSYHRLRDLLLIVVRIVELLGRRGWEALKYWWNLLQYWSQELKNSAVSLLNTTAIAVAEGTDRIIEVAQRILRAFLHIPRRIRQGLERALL

In the case of `COc1ccc(-c2nc3c(C(=O)N4CCN(C(CO)c5cccnc5)C[C@H]4C)cnn3c(C(F)(F)F)c2C)cc1` (stereo partly drawn) [methanone, [(2R)-4-[2-hydroxy-1-(3-pyridinyl)ethyl]-2-methyl-1-piperazinyl][5-(4-methoxyphenyl)-6-methyl-7-(trifluoromethyl)pyrazolo[1,5-α]pyrimidin-3-yl]-], the values for the IC50 in test [1] and in test [2] were less than 1000 nM and more than 10100 nM, respectively.

For the molecule `COc1ccc(-c2nc3c(C(=O)N4CCN(C(CO)c5ccsc5)C[C@H]4C)cnn3c(C(F)(F)F)c2C)cc1` (stereo partly drawn) [methanone, [(2R)-4-[2-hydroxy-1-(3-thienyl)ethyl]-2-methyl-1-piperazinyl][5-(4-methoxyphenyl)-6-methyl-7-(trifluoromethyl)pyrazolo[1,5-α]pyrimidin-3-yl]-], the IC50 in test [1] and in test [2] was less than 1000 nM throughout.

In the case of `COc1ccc(-c2nc3c(C(=O)N4CCN(C(CO)c5cnccc5OC)C[C@H]4C)cnn3c(C(F)(F)F)c2C)cc1` (stereo partly drawn) [methanone, [(2R)-4-[2-hydroxy-1-(4-methoxy-3-pyridinyl)ethyl]-2-methyl-1-piperazinyl][5-(4-methoxyphenyl)-6-methyl-7-(trifluoromethyl)pyrazolo[1,5-α]pyrimidin-3-yl]-], the IC50 in test [1] and in test [2] was less than 1000 nM throughout.

Consider `COc1ccc(-c2nc3c(C(=O)N4CCN(C(CO)c5ccc(OC)cc5)C[C@H]4C)cnn3c(C(F)(F)F)c2C)cc1` (stereo partly drawn) [methanone, [(2R)-4-[2-hydroxy-1-(4-methoxyphenyl)ethyl]-2-methyl-1-piperazinyl][5-(4-methoxyphenyl)-6-methyl-7-(trifluoromethyl)pyrazolo[1,5-α]pyrimidin-3-yl]-], for which the IC50 in test [1] and in test [2] was less than 1000 nM each time.

As for `COc1ccc(-c2nc3c(C(=O)N4CCN(C(CO)c5cc(C)cs5)C[C@H]4C)cnn3c(C(F)(F)F)c2C)cc1` (stereo partly drawn) [methanone, [(2R)-4-[2-hydroxy-1-(4-methyl-2-thienyl)ethyl]-2-methyl-1-piperazinyl][5-(4-methoxyphenyl)-6-methyl-7-(trifluoromethyl)pyrazolo[1,5-α]pyrimidin-3-yl]-], the IC50 in test [1] and in test [2] was less than 1000 nM throughout.

For the molecule `COc1ccc(-c2nc3c(C(=O)N4CCN(C(CO)c5ccc(OC)nc5)C[C@H]4C)cnn3c(C(F)(F)F)c2C)cc1` (stereo partly drawn) [methanone, [(2R)-4-[2-hydroxy-1-(6-methoxy-3-pyridinyl)ethyl]-2-methyl-1-piperazinyl][5-(4-methoxyphenyl)-6-methyl-7-(trifluoromethyl)pyrazolo[1,5-α]pyrimidin-3-yl]-], the IC50 in test [1] and in test [2] was less than 1000 nM in each case.

For the molecule `COc1ccc(-c2nc3c(C(=O)N4CCN(C(CO)c5ccccc5OC(F)(F)F)C[C@H]4C)cnn3c(C(F)(F)F)c2C)cc1` (stereo partly drawn) [methanone, [(2R)-4-[2-hydroxy-1-[2-(trifluoromethoxy)phenyl]ethyl]-2-methyl-1-piperazinyl][5-(4-methoxyphenyl)-6-methyl-7-(trifluoromethyl)pyrazolo[1,5-α]pyrimidin-3-yl]-], the IC50 in test [1] and in test [2] was 1100 to 10000 nM in each case.

Take `COc1ccc(-c2nc3c(C(=O)N4CCN(C(CO)c5ccccc5C(F)(F)F)C[C@H]4C)cnn3c(C(F)(F)F)c2C)cc1` (stereo partly drawn) [methanone, [(2R)-4-[2-hydroxy-1-[2-(trifluoromethyl)phenyl]ethyl]-2-methyl-1-piperazinyl][5-(4-methoxyphenyl)-6-methyl-7-(trifluoromethyl)pyrazolo[1,5-α]pyrimidin-3-yl]-]: the IC50 in test [1] and in test [2] was less than 1000 nM each time.

On to `COc1ccc(-c2nc3c(C(=O)N4CCN(C(CO)c5cccc(N6CCNCC6)c5)C[C@H]4C)cnn3c(C(F)(F)F)c2C)cc1` (stereo partly drawn) [methanone, [(2R)-4-[2-hydroxy-1-[3-(1-piperazinyl)phenyl]ethyl]-2-methyl-1-piperazinyl][5-(4-methoxyphenyl)-6-methyl-7-(trifluoromethyl)pyrazolo[1,5-α]pyrimidin-3-yl]-], for which the IC50 in test [1] and in test [2] was more than 10100 nM throughout.

Turning to `COc1ccc(-c2nc3c(C(=O)N4CCN(C(CO)c5cccc(N6CCCC6)c5)C[C@H]4C)cnn3c(C(F)(F)F)c2C)cc1` (stereo partly drawn) [methanone, [(2R)-4-[2-hydroxy-1-[3-(1-pyrrolidinyl)phenyl]ethyl]-2-methyl-1-piperazinyl][5-(4-methoxyphenyl)-6-methyl-7-(trifluoromethyl)pyrazolo[1,5-α]pyrimidin-3-yl]-], the IC50 in test [1] and in test [2] was less than 1000 nM throughout.

With `COc1ccc(-c2nc3c(C(=O)N4CCN(C(CO)c5cccc(N6CCOCC6)c5)C[C@H]4C)cnn3c(C(F)(F)F)c2C)cc1` (stereo partly drawn) [methanone, [(2R)-4-[2-hydroxy-1-[3-(4-morpholinyl)phenyl]ethyl]-2-methyl-1-piperazinyl][5-(4-methoxyphenyl)-6-methyl-7-(trifluoromethyl)pyrazolo[1,5-α]pyrimidin-3-yl]-], the IC50 in test [1] and in test [2] was 1100 to 10000 nM in each case.

With `COc1ccc(-c2nc3c(C(=O)N4CCN(C(CO)c5cccc(S(C)(=O)=O)c5)C[C@H]4C)cnn3c(C(F)(F)F)c2C)cc1` (stereo partly drawn) [methanone, [(2R)-4-[2-hydroxy-1-[3-(methylsulfonyl)phenyl]ethyl]-2-methyl-1-piperazinyl][5-(4-methoxyphenyl)-6-methyl-7-(trifluoromethyl)pyrazolo[1,5-α]pyrimidin-3-yl]-], the IC50 in test [1] and in test [2] was more than 10100 nM throughout.

For the molecule `COc1ccc(-c2nc3c(C(=O)N4CCN(C(CO)c5cccc(OC(F)(F)F)c5)C[C@H]4C)cnn3c(C(F)(F)F)c2C)cc1` (stereo partly drawn) [methanone, [(2R)-4-[2-hydroxy-1-[3-(trifluoromethoxy)phenyl]ethyl]-2-methyl-1-piperazinyl][5-(4-methoxyphenyl)-6-methyl-7-(trifluoromethyl)pyrazolo[1,5-α]pyrimidin-3-yl]-], the IC50 in test [1] and in test [2] was less than 1000 nM in each case.

For `COc1ccc(-c2nc3c(C(=O)N4CCN(C(CO)c5cccc(C(F)(F)F)c5)C[C@H]4C)cnn3c(C(F)(F)F)c2C)cc1` (stereo partly drawn) [methanone, [(2R)-4-[2-hydroxy-1-[3-(trifluoromethyl)phenyl]ethyl]-2-methyl-1-piperazinyl][5-(4-methoxyphenyl)-6-methyl-7-(trifluoromethyl)pyrazolo[1,5-α]pyrimidin-3-yl]-], the IC50 in test [1] is less than 1000 nM; in test [2] it was 1100 to 10000 nM.

With `COc1ccc(-c2nc3c(C(=O)N4CCN([C@@H](CO)c5cccc(OC)c5F)C[C@H]4C)cnn3c(C(F)(F)F)c2C)cc1` [methanone, [(2R)-4-[(1R)-1-(2-fluoro-3-methoxyphenyl)-2-hydroxyethyl]-2-methyl-1-piperazinyl][5-(4-methoxyphenyl)-6-methyl-7-(trifluoromethyl)pyrazolo[1,5-α]pyrimidin-3-yl]-], the IC50 in test [1] and in test [2] was less than 1000 nM in each case.

Turning to `COc1ccc(-c2nc3c(C(=O)N4CCN([C@@H](CO)c5ccccc5F)C[C@H]4C)cnn3c(C(F)(F)F)c2C)cc1` [methanone, [(2R)-4-[(1R)-1-(2-fluorophenyl)-2-hydroxyethyl]-2-methyl-1-piperazinyl][5-(4-methoxyphenyl)-6-methyl-7-(trifluoromethyl)pyrazolo[1,5-α]pyrimidin-3-yl]-], the IC50 in test [1] and in test [2] was less than 1000 nM throughout.

In the case of `COc1ccc(-c2nc3c(C(=O)N4CCN([C@H](CO)c5ccco5)C[C@H]4C)cnn3c(C(F)(F)F)c2C)cc1` [methanone, [(2R)-4-[(1R)-1-(2-furanyl)-2-hydroxyethyl]-2-methyl-1-piperazinyl][5-(4-methoxyphenyl)-6-methyl-7-(trifluoromethyl)pyrazolo[1,5-α]pyrimidin-3-yl]-], the IC50 in test [1] and in test [2] was less than 1000 nM in each case.

Take `COc1ccc(-c2nc3c(C(=O)N4CCN([C@H](C)c5ccc(F)c(F)c5)C[C@H]4C)cnn3c(C(F)(F)F)c2C)cc1` [methanone, [(2R)-4-[(1R)-1-(3,4-difluorophenyl)ethyl]-2-methyl-1-piperazinyl][5-(4-methoxyphenyl)-6-methyl-7-(trifluoromethyl)pyrazolo[1,5-α]pyrimidin-3-yl]-]: the IC50 in test [1] and in test [2] was less than 1000 nM each time.

With `COc1ccc(-c2nc3c(C(=O)N4CCN([C@H](C)c5cc(F)cc(F)c5)C[C@H]4C)cnn3c(C(F)(F)F)c2C)cc1` [methanone, [(2R)-4-[(1R)-1-(3,5-difluorophenyl)ethyl]-2-methyl-1-piperazinyl][5-(4-methoxyphenyl)-6-methyl-7-(trifluoromethyl)pyrazolo[1,5-α]pyrimidin-3-yl]-], the IC50 in test [1] and in test [2] was less than 1000 nM throughout.

In the case of `COc1ccc(-c2nc3c(C(=O)N4CCN([C@@H](CO)c5c(C)noc5C)C[C@H]4C)cnn3c(C(F)(F)F)c2C)cc1` [methanone, [(2R)-4-[(1R)-1-(3,5-dimethyl-4-isoxazolyl)-2-hydroxyethyl]-2-methyl-1-piperazinyl][5-(4-methoxyphenyl)-6-methyl-7-(trifluoromethyl)pyrazolo[1,5-α]pyrimidin-3-yl]-], the IC50 in test [1] and in test [2] was 1100 to 10000 nM in each case.

With `COc1ccc(-c2nc3c(C(=O)N4CCN([C@H](C)c5ccc(F)cc5)C[C@H]4C)cnn3c(C(F)(F)F)c2C)cc1` [methanone, [(2R)-4-[(1R)-1-(4-fluorophenyl)ethyl]-2-methyl-1-piperazinyl][5-(4-methoxyphenyl)-6-methyl-7-(trifluoromethyl)pyrazolo[1,5-α]pyrimidin-3-yl]-], the IC50 in test [1] and in test [2] was less than 1000 nM in each case.
